Here are results for 13 compounds from patent US9808527B2, “Methods and compositions for treating HIV infections” (priority 2006, dated 2017).

For one test, the system named is HIV. As to conditions: read-out: ID50 (the source's name); cited from earlier work.
The target of test [1] is T1, CFP- and YFP-tagged HIV-1 protease subunits (Human immunodeficiency virus type 1 group M subtype B, UniProt P12497).
T1 construct: expressed in transfected cells; host or cells: Cos-7
Format: cell-based. As to conditions: for inhibition of protease dimerization: Cos-7 cells; for dose response of dimerization inhibition: 0.001-10 μM (GRL-0026A 0.1-10 μM), 72 hrs. On the procedure:
After 72 hr, cultured cells were examined in the FRET-HIV-1 assay system using confocal microscopy Fluoview FV500 confocal laser scanning microscope, and CFP^A/B were determined and plotted. […] The FRET efficiency was determined following acceptor photobleaching as previously described (Bastiaens et al., EMBO 1996; Siegel et al., Science's stke 2000; Firulli et al., Nature genetics, 2005; Szczesna et al., JBC 2003). Dequenching of the donor CFP by selective photobleaching of the acceptor YFP was performed by first obtaining YFP and CFP images at the same focal plane, followed by illuminating for 3 min the same image at wavelength of 488 nm with a laser power set at the maximum intensity to bleach YFP and re-capturing the same CFP and YFP images. The changes in the CFP and YFP fluorescence intensity in the images of selected regions were examined and quantified using Olympus FV500 Image software system. Background values were obtained from the regions where no cells were present and were subtracted from the values for the cells examined in all calculations. For each chimeric protein, the data were obtained from at least three independent experiments. FRET efficiency was determined using the formula: ET=(1−(IDA/ID))×100, where IDA and ID represent the steady-state donor fluorescence in the presence and absence of the acceptor, respectively. Digitized image data obtained from the experiment were prepared for presentation using Photoshop 6.0 (Adobe systems, Mountain View, Calif.). Ratios of intensities of ECFP fluorescence after photobleaching to ECFP fluorescence prior to photobleaching were determined. The ratios of more than 1 indicate that dimerization of CFP- and YFP-tagged protease subunits occurred and those of less than 1 indicate that dimerization was blocked by the test agent.
Generation of FRET-based HIV-1 expression assay. The basic concepts of the intermolecular fluorescence resonance energy transfer (FRET)-based HIV-1-expression assay (FRET-HIV-1 assay) are shown in FIG. 7. Within a plasmid (pHIV-1NL4-3), which encodes a full-length molecular infectious HIV-1 clone, the gene encoding a cyan fluorescent donor protein (CFP) was attached to the downstream end (C-terminus) of the gene encoding an HIV-1 protease subunit through the flexible linker added (five alanines), generating pHIV-1NL4-3/CFP (FIG. 7A). Within the other plasmid (pHIV-1NL4-3), the gene encoding a yellow fluorescent acceptor protein (YFP) was attached to the downstream end of protease-encoding gene in the same manner, generating pHIV-1NL4-3/YFP. Both CFP and YFP were designed to have phenylalanine and proline in the connection with reverse transcriptase so that the protease is cleaved from reverse transcriptase when two subunits dimerize and the dimerized protease acquires enzymatic activity. […] A focused laser beam excitation of CFP (triggered by Helium-Cadmium laser) results in rapid energy transfer to YFP, and most of the fluorescence photons are emitted by YFP (Miyawaki et al. Nature 388(6645):882-887 (1997)). If the dimerization is blocked, the average distance between CFP and YFP becomes larger and the energy transfer rate is decreased and the fraction of photons emitted by YFP is lowered.
In order to interpret the energy transfer efficiency quantitatively, an acceptor photobleaching technique was used, in which the change in CFP emission quenching is measured by comparing the value before and after selectively photobleaching YFP, which prevents problems associated with variable expression levels.

A further test has as its system HIV-1LAI. Description: MTT assay, MT-2 cells exposed to HIV-1LAI (acute HIV-1 infection assay). Format: cell-based. The procedure:
Drug susceptibility assay. The susceptibility of HIV-1LAI, HIV-2EHO, HIV-2ROD, to various drugs and the cytotoxicity of those drugs was determined by using the MTT assay. Briefly, MT-2 cells (2×10^4/mL) were exposed to 100 TCID50s (50% tissue culture infectious doses) of HIV-1LAI, HIV-2EHO, or HIV-2ROD in the presence or absence of various concentrations of drugs in 96-well microculture plates and were incubated at 37° C. for 7 days. After 100 μL of the medium was removed from each well, 3-(4,5-dimethylthiazol-2-yl)-2,5-diphenyltetrazolium bromide (MTT) solution (10 μL, 7.5 mg/mL in phosphate-buffered saline) was added to each well in the plate, followed by incubation at 37° C. for 4 hours. […] All assays were performed in duplicate or triplicate. To determine the sensitivity of HIV-1Ba-L, HIV-1ERS104 pre, and clinical multi-drug-resistant HIV-1 isolates and different subtypes of HIV-1 isolates to drugs, phytohemagglutinin-activated peripheral blood mononuclear cells (PHA-PBMs; 10^6/mL) were exposed to 50 TCID50 (50% tissue infectious dose) of each HIV-1 isolate and cultured in the presence or absence of various concentrations of drugs in 10-fold serial dilutions in 96-well microtiter culture plates. To determine the drug susceptibility of certain laboratory HIV-1 strains (HIV-1NL4-3), MT-4 cells were used as target cells. MT-4 cells (10^5/mL) were exposed to 100 TCID50 of wild type HIV-1NL4-3 and PI-resistant HIV-1NL4-3 in the presence or absence of various concentrations of drugs and were incubated at 37° C. On day 7 of culture, the supernatant was harvested and the amount of p24 Gag protein was determined by using a fully automated chemiluminescent enzyme immunoassay system (Lumipulse F; Fujirebio Inc., Tokyo, Japan) (22). […] All assays were performed in duplicate or triplicate.

In another test the target is T2, HIV-1 protease (Human immunodeficiency virus type 1 group M subtype B, UniProt P04585, C555A/C583A/L521I/L551I/Q495K/V491I).
T2 construct: Wild-type PR at final concentrations of 160-190 nM were added
Put plainly: biochemical. Format: biochemical. An excerpt:
Enzyme kinetics. The chromogenic substrate Lys-Ala-Arg-Val-Nle-p-nitroPhe-Glu-Ala-Nle-amide (Sigma, St. Louis, Mo.) was used to determine the kinetic parameters (Kovalevsky et al. J Mol Biol 363(1):161-173 (2006), Ghosh et al. J Med Chem 49(17):5252-5261 (2006)). […] The kcat and Km values were obtained employing standard data fitting techniques for a reaction obeying Michaelis-Menten kinetics. The data curves were fitted using SigmaPlot 8.0.2 (SPSS Inc., Chicago, Ill.). The active enzyme concentrations were calculated from the intercept of the linear fit to the IC50 versus [S] plots with the IC50 axis. The Ki values were obtained from the IC50 values estimated from an inhibitor dose-response curve with the spectroscopic assay using the equation Ki=(IC50-[E]/2)/(1+[S]/Km), where [E] and [S] are the PR and substrate concentrations, respectively (Maibaum & Rich J Med Chem 31(34):625-629 (1988)). The Ki values were measured at four to five substrate concentrations. The measurement was repeated at least three times to produce the average values.

Where [2] appears, read: Human immunodeficiency virus 1, MT2, 168 h, read-out: IC50 against HIV-1LAI, MT-2 cells, 100 TCID50 of HIV-1LAI, MTT assay on day 7.
Setting [3] is: MT-2 cells, 100 TCID50 of HIV-1LAI, MTT assay on day 7, read-out: IC50 against HIV-1LAI.

“Also recorded” adds a separate entry of the source. Where two headings read alike, the source gives them in different places.

As to `CC(C)CN(CC(O)C(Cc1ccccc1)NC(=O)OC1COC2OCCC12)S(=O)(=O)c1ccc(N)cc1` (stereo not shown), the IC50 in the test on HIV was 4.5 nM. `Cc1ccc(S(=O)(=O)N(CC(C)C)CC(O)C(Cc2ccccc2)NC(=O)OC2COC3OCCC23)cc1` (stereo not shown): the IC50 in the test with HIV was 3.5 nM.

Regarding `COc1ccc(S(=O)(=O)N(CC(C)C)CC(O)C(Cc2ccccc2)NC(=O)OC2COC3OCCCC23)cc1` (stereo not shown), the IC50 in the test on HIV was 4.5 nM.

With `Nc1nc(NC2CC2)c2ncn([C@H]3C=C[C@@H](CO)C3)c2n1` [ABC, abacavir], the “inhibition of protease dimerization” value in test [1] (10 μM) is listed as “failed to inhibit the dimerization”; in test [1] (10 μM, listed as abacavir) it was “did not block the dimerization; also recorded: failed to inhibit HIV-1 protease dimerization”. As to `Cc1nc(COc2ccc(C[C@H](NC(=O)O[C@H]3CO[C@H]4OCC[C@H]43)[C@H](O)CN(CC(C)C)S(=O)(=O)c3ccc4c(c3)OCO4)cc2)cs1` [BCV, brecanavir], the “inhibition of protease dimerization” value in test [1] (1 μM) is given as “disrupt protease dimerization”. Besides, the “dose response of dimerization inhibition” value in test [1] is listed as “Dose-responsive dimerization inhibition”. Moreover, the IC50 in the test with HIV-1LAI (setting [2]) amounted to 0.2 nM. The compound also came in with an inhibitory constant (Ki) on HIV-1 protease of 0.0068 nM. As for `O=C1Nc2ccc(Cl)cc2[C@@](C#CC2CC2)(C(F)(F)F)O1` [EFV, efavirenz], the “inhibition of protease dimerization” value in test [1] (1 μM) is “failed to inhibit the dimerization”; in test [1] (1 μM, listed as efavirenz), “did not block the dimerization; also recorded: failed to inhibit HIV-1 protease dimerization”.

Regarding `COc1ccc(S(=O)(=O)N(CC(C)C)C[C@@H](O)[C@H](Cc2ccccc2)NC(=O)C[C@H]2CO[C@H]3OCC[C@@H]23)cc1` [GRL-0026A], the “dose response of dimerization inhibition” value in test [1] is “Dose-responsive dimerization inhibition”. Also, the IC50 in the test on HIV-1LAI (setting [3]) worked out at 480 nM.

For `CC(C)CN(C[C@@H](O)[C@H](Cc1ccccc1)NC(=O)O[C@@H]1C[C@@H]2CCO[C@@H]2C1)S(=O)(=O)c1ccc(CO)cc1` [GRL-06579A], the “inhibition of protease dimerization” value in test [1] (1 μM) is “dimerization was effectively blocked; also recorded: disrupt protease dimerization”. Further, in the test on HIV-1LAI (setting [3]), the IC50 is 1 nM. Also, on HIV-1 protease (wild-type PR, pH 5.0, read-out: Ki against HIV-1 protease), the Ki stood at 0.0035 nM.

For the compound `Cc1ccnc2c1NC(=O)c1cccnc1N2C1CC1` [NVP, nevirapine], the “inhibition of protease dimerization” value in test [1] (1 μM) is “failed to inhibit the dimerization”; in test [1] (1 μM, listed as nevirapine), “did not block the dimerization; also recorded: failed to inhibit HIV-1 protease dimerization”.

As for `COc1ccc(S(=O)(=O)N(CC(C)C)CC(O)C(Cc2ccccc2)NC(=O)OC2COC3OCCC23)cc1` (stereo not shown) [TMC126], the “inhibition of protease dimerization” value in test [1] (1 μM) is given as “dimerization was effectively blocked; also recorded: disrupt protease dimerization”. The “dose response of dimerization inhibition” value in test [1] is reported as “Dose-responsive dimerization inhibition”. The IC50 was 0.3 nM in the test with HIV-1LAI (setting [2]) and 0.3 nM with HIV-1LAI (Human immunodeficiency virus 1, MT2, 168 h, read-out: MTT assay (IC50, nM), Human CD4+ MT-2 cells, 100 TCID50 of HIV-1LAI, day 7). Take `CCC[C@@]1(CCc2ccccc2)CC(O)=C([C@H](CC)c2cccc(NS(=O)(=O)c3ccc(C(F)(F)F)cn3)c2)C(=O)O1` [TPV, tipranavir]: the IC50 in the test on HIV-1LAI (setting [2]) worked out at 100 nM. Turning to `CCCCN1C(=O)[C@@H]([C@H](O)C2CCCCC2)NC(=O)C12CCN(Cc1ccc(Oc3ccc(C(=O)O)cc3)cc1)CC2` [aplaviroc], in test [1] (1 μM), the “inhibition of protease dimerization” value is listed as “did not block the dimerization; also recorded: failed to inhibit the dimerization; also recorded: failed to inhibit HIV-1 protease dimerization”. Turning to `COc1ccc(S(=O)(=O)N(CC(C)C)CC(O)C(Cc2ccccc2)NC(=O)OC2COC3OCCC23)cc1` (stereo not shown) [drawing 20], the IC50 in the test on HIV was 1.4 nM.
